Measured values: patent publication US10570117B2, “Phenylimidazole compound” (Otsuka Pharmaceutical Factory, Inc., priority 2015, dated 2020)
In brackets after ≈: the same amount, converted by molar mass. Where two headings read alike, the source gives them in different places.

Tests used:
[1] = system: lipoprotein lipase (LPL) gene; experiment: LPL mRNA elevating action (RT-PCR quantification of LPL mRNA in C2Cl2 cells); format: cell-based, mouse; settings: Mus musculus, 24 h, compound 10 μM, ratio relative to the amount of LPL mRNA in cells with DMSO only, read-out: Rate of increase in LPL mRNA
Method in brief: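 Mouse striated-muscle C2Cl2 cells in DMEM with 10% FBS exposed to compounds at 10 μM for 24 h. LPL mRNA quantified by RT-PCR and real-time PCR (20 cycles), expressed as ratio to DMSO-only cells set at 1.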

[2] = Solubility in gastric juice or intestinal juice model fluid (precipitation method using DMSO); format: physicochemical; settings: room temperature
Method in brief: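 Compound in DMSO added to JP disintegration test fluid 1 (pH 1.2) or fluid 2 (pH 6.8) and shaken 24 h at room temperature. After filtration, dissolved concentration (μg/mL) determined by UV absorbance against compound calibration curves.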

[3] = pH 1.2, simulated gastric fluid, kinetic from dmso stock, 1st fluid for Disintegration Test of Japanese Pharmacopoeia (pH: 1.2), read-out: Solubility (μg/mL) 1st fluid
[4] = pH 6.8, kinetic from dmso stock, 2nd fluid for Disintegration Test of Japanese Pharmacopoeia (pH: 6.8), read-out: Solubility (μg/mL) 2nd fluid

## COc1cc(O)ccc1-c1[nH]c(-c2ccc(F)nc2)nc1Cl [Example 313]
other
  melting point: 209 to 214 °C (dec.)
[1]
  fold induction at 10 µM: 1.33
[2]; [3]
  solubility at 24 h: 62.3 µg/mL (≈ 195 µM)
[2]; [4]
  solubility at 24 h: 5 µg/mL (≈ 15.6 µM)

## COc1cc(-c2[nH]c(C3CCC(F)(F)CC3)nc2Br)ccc1OCc1ncc(C(F)(F)F)cc1F [Example 327]
other
  melting point: 203 to 204 °C
[1]
  fold induction at 10 µM: 3.06
[2]; [3]
  solubility at 24 h: 110 µg/mL (≈ 194 µM)
[2]; [4]
  solubility at 24 h: 0.7 µg/mL (≈ 1.24 µM)

## COc1cc(-c2[nH]c(CCC(F)(F)F)nc2Cl)ccc1OCc1ncc(C(F)(F)F)cc1F [Example 395]
other
  melting point: 116 to 119 °C
[1]
  fold induction at 10 µM: 2.61
[2]; [3]
  solubility at 24 h: 3.8 µg/mL (≈ 7.63 µM)
[2]; [4]
  solubility at 24 h: < 0.4 µg/mL

## COc1cc(-c2[nH]c(C3CCC(F)(F)C3)nc2Cl)ccc1OCc1ccc(C(F)(F)F)cn1 (stereo not drawn) [Example 189]
other
  melting point: 159 to 161 °C
[1]
  fold induction at 10 µM: 3.51
[2]; [3]
  solubility at 24 h: 89 µg/mL (≈ 182 µM)
[2]; [4]
  solubility at 24 h: 11.6 µg/mL (≈ 23.8 µM)

## COc1cc(-c2[nH]c(C3CCCC(F)(F)C3)nc2Br)ccc1OCc1ccc(C(F)(F)F)cn1 (stereo not drawn) [Example 170]
other
  melting point: 158 to 160 °C
[1]
  fold induction at 10 µM: 3.36
[2]; [3]
  solubility at 24 h: 105 µg/mL (≈ 191 µM)
[2]; [4]
  solubility at 24 h: 1.3 µg/mL (≈ 2.38 µM)

## COc1cc(-c2cnc(C(C)(C)C)[nH]2)ccc1OCc1ncc(C(F)(F)F)cc1F [Example 380]
other
  melting point: 178 to 182 °C
[1]
  fold induction at 10 µM: 1.18
[2]; [3]
  solubility at 24 h: 81.2 µg/mL (≈ 192 µM)
[2]; [4]
  solubility at 24 h: 63.7 µg/mL (≈ 150 µM)

## COc1cc(OCc2ccc(C(F)(F)F)cn2)ccc1-c1nc(-c2ccc(F)nc2)n(C)c1Cl [Example 169, 2-[[4-(5-chloro-2-(6-fluoropyridin-3-yl)-1-methyl-1H-imidazol-4-yl)-3-methoxyphenoxy]methyl]-5-(trifluoromethyl)pyridine]
other
  melting point: 158 to 160 °C (dec.)
[1]
  fold induction at 10 µM: 3.12
[2]; [3]
  solubility at 24 h: 96.3 µg/mL (≈ 195 µM)
[2]; [4]
  solubility at 24 h: < 0.4 µg/mL

## COc1cc(OCc2ncc(C(F)(F)F)cc2Cl)ccc1-c1cnc(-c2ccc(F)nc2)[nH]1 [Example 132]
other
  melting point: 185 to 187 °C
[1]
  fold induction at 10 µM: 2.77
[2]; [3]
  solubility at 24 h: 5.9 µg/mL (≈ 12.3 µM)
[2]; [4]
  solubility at 24 h: < 0.3 µg/mL

## COc1cc(OCc2ccc(C(F)(F)F)cn2)ccc1-c1c[nH]c(-c2ccc(C)nc2)n1 [Example 80]
other
  melting point: 203 to 205 °C
[1]
  fold induction at 10 µM: 2.01
[2]; [3]
  solubility at 24 h: 84.9 µg/mL (≈ 193 µM)
[2]; [4]
  solubility at 24 h: 0.4 µg/mL (≈ 0.908 µM)

## COc1cc(-c2c[nH]c(-c3ccc(F)nc3)n2)cc(OC)c1OCc1ccc(C(F)(F)F)cn1 [Example 46]
other
  melting point: 107 to 110 °C
[1]
  fold induction at 10 µM: 2.49
[2]; [3]
  solubility at 24 h: 22.9 µg/mL (≈ 48.3 µM)
[2]; [4]
  solubility at 24 h: < 9.1 µg/mL

## COc1cc(OCc2ncc(Cl)cc2Br)ccc1-c1[nH]c(-c2ccc(F)nc2)nc1Cl [Example 265]
other
  melting point: 195 to 199 °C
[1]
  fold induction at 10 µM: 3.36
[2]; [3]
  solubility at 24 h: 2.2 µg/mL (≈ 4.2 µM)
[2]; [4]
  solubility at 24 h: 5.8 µg/mL (≈ 11.1 µM)

## COc1cc(OCc2cncc(C(F)(F)F)c2)ccc1-c1[nH]c(-c2ccc(F)nc2)nc1Cl [Example 279]
other
  melting point: 188 to 190 °C
[1]
  fold induction at 10 µM: 3.63
[2]; [3]
  solubility at 24 h: 4.1 µg/mL (≈ 8.56 µM)
[2]; [4]
  solubility at 24 h: 0.5 µg/mL (≈ 1.04 µM)
